Measurements published in patent US20020035061A1, “COMPOSITIONS AND METHODS FOR TREATING INFECTIONS USING CATIONIC PEPTIDES ALONE OR IN COMBINATION WITH ANTIBIOTICS” (priority 1996, published 2002).
Where two headings read alike, the source gives them in different places.

Key:
Assay type in all cases: cell-based
[1] = test system: E. faecalis
[2] = test system: E. cloacae
[3] = test system: P. aeruginosa; conditions: for Peptide MIC values: agarose dilution
[4] = test system: inherently resistant microorganisms; assay: microbe, parasite or virus in culture
[5] = test system: bacterial isolates; assay: microbe, parasite or virus in culture
[6] = test system: A. calcoaceticus
[7] = test system: E. coli; conditions: for Peptide MIC values: agarose dilution
[8] = test system: S. aureus; conditions: for Peptide MIC values: agarose dilution
[9] = test system: S. marcescens; conditions: for Peptide MIC values: agarose dilution
[10] = test system: S. epidermidis; conditions: S. epidermidis strain SE010
[11] = test system: E. faecium; conditions: agarose dilution
[12] = test system: K. pneumoniae
[13] = test system: H. influenzae; assay: Agarose dilution assay (MIC)
[14] = test system: S. pneumoniae; assay: Agarose dilution assay (MIC); conditions: for MIC: S. pneumoniae strain SBSPN3; for Peptide MIC values: agarose dilution
[15] = test system: S. maltophilia
[16] = test system: P. vulgaris; assay: Agarose dilution assay (MIC); conditions: agarose dilution; P. vulgaris ATCC 13315
[17] = test system: microorganisms with acquired resistance; assay: microbe, parasite or virus in culture; conditions: for Peptide MIC Alone: Piperacillin section; for FIC: peptide + Piperacillin
[18] = test system: S. pyogenes; assay: Agarose dilution assay (MIC); conditions: S. pyogenes strain SPY005

Q: With ILKKWPWWPWRK [MBI 11B4CN] as the sequence, how does the MIC ([1]; E. faecalis strain EFS002) read?
A: Its MIC is 16 µg/mL.

Q: What about the MIC ([2]; E. cloacae strain ECL007) of the same sequence?
A: Its MIC is >128 µg/mL.

Q: And the MIC ([3]; P. aeruginosa strain PA006)?
A: The MIC was >128 µg/mL.

Q: And the “Peptide MIC values” ([3]; P. aeruginosa ATCC 27853)?
A: The value was >128 µg/mL.

Q: What about the “Peptide MIC values” ([3]; P. aeruginosa NCTC 10662) of the same sequence?
A: Its value is >128 µg/mL.

Q: And the “Peptide MIC + Mupirocin” value ([4]; E. coli)?
A: Its value is 8 µg/mL.

Q: And the “Peptide MIC Alone” value ([4]; E. coli, Mupirocin section)?
A: Its value is 16 µg/mL.

Q: What about the FIC ([4]; peptide + Mupirocin, E. coli) of the same sequence?
A: Its FIC is 0.53.

Q: What about the “Mupirocin MIC + Peptide” value ([5]; E. coli SBECO1) of the same sequence?
A: Its value is 30 µg/mL.

Q: What about the “Peptide MIC + Mupirocin” value ([5]; E. coli SBECO1) of the same sequence?
A: The value was 0.5 µg/mL.

Q: What about the “Peptide MIC Alone” value ([5]; E. coli SBECO1, Mupirocin section) of the same sequence?
A: Its value is 8 µg/mL.

Q: What about the “Mupirocin MIC + Peptide” value ([5]; E. coli SBECO2) of the same sequence?
A: The value was 30 µg/mL.

Q: What about the “Peptide MIC + Mupirocin” value ([5]; E. coli SBECO2) of the same sequence?
A: Its value is 2 µg/mL.

Q: And the “Peptide MIC Alone” value ([5]; E. coli SBECO2, Mupirocin section)?
A: Its value is 32 µg/mL.

Q: What about the FIC ([5]; peptide + Mupirocin, E. coli SBECO1) of the same sequence?
A: The FIC was 0.36.

Q: And the FIC ([5]; peptide + Mupirocin, E. coli SBECO2)?
A: Its FIC is 0.09.

Q: And the MIC ([6]; A. calcoaceticus strain AC001)?
A: Its MIC is >128 µg/mL.

Q: What about the MIC ([7]; E. coli strain ECO003) of the same sequence?
A: The MIC was 16 µg/mL.

Q: What about the “Peptide MIC values” ([7]; E. coli ATCC 25922) of the same sequence?
A: The value was 32 µg/mL.

Q: What about the “Peptide MIC values” ([7]; E. coli ESS) of the same sequence?
A: Its value is 8 µg/mL.

Q: And the “Peptide MIC values” ([7]; E. coli NCTC 10418)?
A: Its value is 8 µg/mL.

Q: And the MIC ([8]; S. aureus strain SA004)?
A: The MIC was 2 µg/mL.

Q: And the “Peptide MIC values” ([8]; S. aureus ATCC 29213)?
A: The value was 1 µg/mL.

Q: What about the “Peptide MIC values” ([8]; S. aureus MRSA9) of the same sequence?
A: The value was 4 µg/mL.

Q: And the “Peptide MIC values” ([8]; S. aureus MRSA13)?
A: Its value is 32 µg/mL.

Q: What about the “Peptide MIC values” ([8]; S. aureus MRSA17) of the same sequence?
A: The value was 8 µg/mL.

Q: What about the “Peptide MIC values” ([8]; S. aureus SA206) of the same sequence?
A: The value was 16 µg/mL.

Q: What about the MIC ([9]; S. marcescens strain SBSM2) of the same sequence?
A: Its MIC is >128 µg/mL.

Q: And the MIC ([9]; S. marcescens strain SMS004)?
A: The MIC was >128 µg/mL.

Q: What about the “Peptide MIC values” ([9]; S. marcescens SM76) of the same sequence?
A: Its value is >128 µg/mL.

Q: What about the “Peptide MIC values” ([9]; S. marcescens SM82) of the same sequence?
A: Its value is >128 µg/mL.

Q: And the MIC [10]?
A: Its MIC is 4 µg/mL.

Q: And the “Peptide MIC values” [11]?
A: Its value is 8 µg/mL.

Q: And the MIC ([12]; K. pneumoniae strain KP002)?
A: Its MIC is 128 µg/mL.

Q: And the MIC ([13]; H. influenzae strain HIN002)?
A: The MIC was >128 µg/mL.

Q: What about the MIC [14] of the same sequence?
A: Its MIC is 128 µg/mL.

Q: What about the “Peptide MIC values” ([14]; S. pneumoniae 406LE8) of the same sequence?
A: The value was 128 µg/mL.

Q: What about the “Peptide MIC values” ([14]; S. pneumoniae 60120) of the same sequence?
A: Its value is >128 µg/mL.

Q: And the “Peptide MIC values” ([14]; S. pneumoniae ATCC 49619)?
A: The value was 64 µg/mL.

Q: And the MIC ([15]; S. maltophilia strain SMA002)?
A: Its MIC is 64 µg/mL.

Q: And the “Peptide MIC values” [16]?
A: The value was >128 µg/mL.

Q: What does the source list for ILRWVWWVWRRK [MBI 11F4CN]?
A: MIC, Peptide ([1]; E. faecalis EFS008, unmodified parent peptide): 2 µg/mL; MIC ([1]; E. faecalis strain EFS004): 8 µg/mL; MIC ([2]; E. cloacae strain ECL006): 16 µg/mL; MIC, Peptide ([3]; P. aeruginosa PA004, unmodified parent peptide): 32 µg/mL; MIC ([3]; P. aeruginosa strain PA020): 32 µg/mL; Peptide MIC + Piperacillin ([4]; S. aureus MRSA): 2 µg/mL; Peptide MIC Alone ([4]; S. aureus MRSA, Piperacillin section): 4 µg/mL; FIC ([4]; peptide + Piperacillin, S. aureus MRSA): 0.53; Peptide MIC + Piperacillin ([17]; E. cloacae 10): 8 µg/mL; Piperacillin MIC + Peptide ([17]; E. cloacae 10): 4 µg/mL; Peptide MIC Alone ([17]; E. cloacae 10): 16 µg/mL; Peptide MIC + Piperacillin ([17]; H. influenzae 1): 64 µg/mL; Piperacillin MIC + Peptide ([17]; H. influenzae 1): 16 µg/mL; Peptide MIC Alone ([17]; H. influenzae 1): >128 µg/mL; Peptide MIC + Piperacillin ([17]; P. aeruginosa 7): 8 µg/mL; Piperacillin MIC + Peptide ([17]; P. aeruginosa 7): 64 µg/mL; Peptide MIC Alone ([17]; P. aeruginosa 7): 64 µg/mL; Peptide MIC + Piperacillin ([17]; P. aeruginosa 23): 4 µg/mL; Piperacillin MIC + Peptide ([17]; P. aeruginosa 23): 64 µg/mL; Peptide MIC Alone ([17]; P. aeruginosa 23): 64 µg/mL; Peptide MIC + Piperacillin ([17]; S. maltophilia 2): 4 µg/mL; Piperacillin MIC + Peptide ([17]; S. maltophilia 2): 16 µg/mL; Peptide MIC Alone ([17]; S. maltophilia 2): 16 µg/mL; Peptide MIC + Piperacillin ([17]; S. marcescens 1): 4 µg/mL; Piperacillin MIC + Peptide ([17]; S. marcescens 1): 16 µg/mL; Peptide MIC Alone ([17]; S. marcescens 1): >128 µg/mL; FIC ([17]; E. cloacae 10): 0.52; FIC ([17]; H. influenzae 1): 0.75; FIC ([17]; P. aeruginosa 7): 0.38; FIC ([17]; P. aeruginosa 23): 0.31; FIC ([17]; S. maltophilia 2): 0.50; FIC ([17]; S. marcescens 1): 0.08; MIC [18]: 32 µg/mL; Peptide MIC + Piperacillin ([5]; E. cloacae 10): 8 µg/mL; Piperacillin MIC + Peptide ([5]; E. cloacae 10): 4 µg/mL; Peptide MIC Alone ([5]; E. cloacae 10, Piperacillin section): 16 µg/mL; Peptide MIC + Piperacillin ([5]; H. influenzae SB1): 0.125 µg/mL; Piperacillin MIC + Peptide ([5]; H. influenzae SB1): 0.25 µg/mL; Peptide MIC Alone ([5]; H. influenzae SB1, Piperacillin section): >128 µg/mL; Peptide MIC + Piperacillin ([5]; P. aeruginosa 7): 8 µg/mL; Piperacillin MIC + Peptide ([5]; P. aeruginosa 7): 64 µg/mL; Peptide MIC Alone ([5]; P. aeruginosa 7, Piperacillin section): 64 µg/mL; Piperacillin MIC + Peptide ([5]; P. aeruginosa 23): 64 µg/mL; Peptide MIC Alone ([5]; P. aeruginosa 23, Piperacillin section): 64 µg/mL; Peptide MIC + Piperacillin ([5]; S. aureus 19 MRSA): 2 µg/mL; Piperacillin MIC + Peptide ([5]; S. aureus 19 MRSA): 4 µg/mL; Peptide MIC Alone ([5]; S. aureus 19 MRSA, Piperacillin section): 4 µg/mL; Peptide MIC + Piperacillin ([5]; S. maltophilia 2): 0.5 µg/mL; Piperacillin MIC + Peptide ([5]; S. maltophilia 2): 32 µg/mL; Peptide MIC Alone ([5]; S. maltophilia 2, Piperacillin section): 16 µg/mL; Peptide MIC + Piperacillin ([5]; S. marcescens 1): 0.5 µg/mL; Piperacillin MIC + Peptide ([5]; S. marcescens 1): 64 µg/mL; Peptide MIC Alone ([5]; S. marcescens 1, Piperacillin section): >128 µg/mL; FIC ([5]; peptide + Piperacillin, E. cloacae 10): 0.52; FIC ([5]; peptide + Piperacillin, H. influenzae SB1): 0.50; FIC ([5]; peptide + Piperacillin, P. aeruginosa 7): 0.38; FIC ([5]; peptide + Piperacillin, P. aeruginosa 23): 0.31; FIC ([5]; peptide + Piperacillin, S. aureus 19 MRSA): 0.53; FIC ([5]; peptide + Piperacillin, S. maltophilia 2): 0.53; FIC ([5]; peptide + Piperacillin, S. marcescens 1): 0.25; MIC, Peptide ([6]; A. calcoaceticus AC002, unmodified parent peptide): 4 µg/mL; MIC ([6]; A. calcoaceticus strain AC003): 16 µg/mL; MIC, Peptide ([7]; E. coli ECO005, unmodified parent peptide): 8 µg/mL; MIC ([7]; E. coli strain ECO001): 8 µg/mL; MIC, Peptide ([8]; S. aureus SA014, unmodified parent peptide): 2 µg/mL; MIC ([8]; S. aureus strain SA007): 1 µg/mL; MIC ([9]; S. marcescens strain SBSM1): >128 µg/mL; MIC [10]: 2 µg/mL; MIC, Peptide ([12]; K. pneumoniae KP001, unmodified parent peptide): 4 µg/mL; MIC ([12]; K. pneumoniae strain KP001): 8 µg/mL; MIC ([13]; H. influenzae strain HIN003): >128 µg/mL; MIC [14]: >128 µg/mL; MIC, Peptide ([15]; S. maltophilia SMA002, unmodified parent peptide): 16 µg/mL; MIC ([15]; S. maltophilia strain SMA006): 16 µg/mL
